The target in assay [1] is T1, α-glucosidase (maltase) enzyme from Yeast (Saccharomyces cerevisiae, UniProt P53341).
T1 construct: purchased Sisco Research Laboratories Pvt; Ltd
As to the kind of experiment: biochemical. In kind it is biochemical. As for the experimental part: The test compounds were evaluated for their α-glucosidase inhibitory activity following the methodology outlined by Pistia et al.[62] and Bhatia et al.[63] […] The compounds at varied concentrations ranging from 50 to 200 μg mL^−1 were combined with 50 μL of α-glucosidase (maltase) enzyme solution (1 U mL^−1) from Yeast (Sisco Research Laboratories Pvt. Ltd). The mixer was placed at a temperature of 37 °C for duration of 15 minutes, after the addition of 0.1 M phosphate buffer (pH 6.8). Afterward, 25 μl of substrate buffer was introduced into the system to initiate the reaction, and the incubation was prolonged at a temperature of 37 °C for a length of 15 minutes. Finally, the reaction was stopped by adding 50 μl of a 0.2 M sodium carbonate solution, thereby terminating the processes. The measurement was determined at a wavelength of 450 nm. […] The measurement of enzyme activity was carried out as follows.
The formula for calculating the percentage is (ODblank − ODsample) divided by ODblank, multiplied by 100.
A unit of enzyme may be accurately defined as the amount of α-glucosidase enzyme required to generate one micromole of p-nitrophenol (product) from p-nitrophenyl-α-D-glucopyranoside (substrate) for a time of one minute. The IC50, representing the concentration required to inhibit 50% of the enzyme activity, was determined by fitting a regression equation to a graph that plotted concentration (varying from 50–200 μg mL^−1) on the X-axis and percentage of inhibition on the Y-axis for various fractions and extracts.

A further assay addresses α-glucosidase. As to conditions: cited from earlier work.
The mark [2] stands for this setting: yeast α-glucosidase (maltase) 1 U mL^−1, phosphate buffer pH 6.8, 37 °C, read-out: IC50 (α-glucosidase inhibition).
Setting [3] is: hydrazine-type compounds, Fig. 1.
[4] abbreviates: yeast α-glucosidase (maltase) 1 U mL^−1, phosphate buffer pH 6.8, 37 °C.
Setting [5] is: compounds with phenyl rings, Fig. 1.

Structures are written as SMILES. Where two headings read alike, the source gives them in different places.

A word on the IC50: it is the concentration at which inhibition is half-maximal. What is called Ki is the dissociation constant of the complex between target and ligand, obtained from inhibition or displacement.

T1 sequence (P53341 whole entry): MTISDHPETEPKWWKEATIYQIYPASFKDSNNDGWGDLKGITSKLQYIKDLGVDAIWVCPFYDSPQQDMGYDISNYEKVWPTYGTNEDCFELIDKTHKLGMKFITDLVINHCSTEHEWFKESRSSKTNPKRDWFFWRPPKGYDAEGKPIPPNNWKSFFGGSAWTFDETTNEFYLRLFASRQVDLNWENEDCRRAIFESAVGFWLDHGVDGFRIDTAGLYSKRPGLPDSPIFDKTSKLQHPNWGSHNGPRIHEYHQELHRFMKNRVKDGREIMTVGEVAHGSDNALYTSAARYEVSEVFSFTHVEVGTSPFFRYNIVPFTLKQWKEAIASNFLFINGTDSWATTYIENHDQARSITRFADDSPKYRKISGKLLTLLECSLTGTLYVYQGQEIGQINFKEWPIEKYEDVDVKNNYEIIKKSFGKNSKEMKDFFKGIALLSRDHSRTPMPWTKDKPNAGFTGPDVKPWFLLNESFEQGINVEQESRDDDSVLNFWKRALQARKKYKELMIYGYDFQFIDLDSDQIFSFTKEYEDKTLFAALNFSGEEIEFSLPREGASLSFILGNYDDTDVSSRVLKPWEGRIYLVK

In the case of `O=C(C=Cc1cccc(Cl)c1)NNC(=O)C(c1cc(F)c(F)cc1F)C1CCCC1` (centres unmarked) [Compound 7d, 3-(3-Chlorophenyl)-N′-(2-cyclopentyl-2-(2,4,5-trifluorophenyl)acetyl)acrylohydrazide], the IC50 in assay [1] (setting [2]) is 18.9 nM. On to `CC(C(=O)NN)c1ccc(-c2ccccc2)c(F)c1` (centres unmarked) [III], for which the IC50 on α-glucosidase (setting [3]) is 25200 nM. As for `O=C(C=Cc1ccccc1Br)NNC(=O)C(c1ccccc1)C1CCCC1` (centres unmarked) [Compound 6b, 3-(2-Bromophenyl)-N′-(2-cyclopentyl-2-phenylacetyl)acrylohydrazide], in assay [1], half-maximal inhibition (IC50) required 104 nM. Besides, in assay [1] (setting [4]), the “IC50 (α-glucosidase inhibition)” value is “moderate inhibition”. Consider `O=C(C=Cc1ccc(Br)cc1)NNC(=O)C(c1ccccc1)C1CCCC1` (centres unmarked) [Compound 6d, 3-(4-Bromophenyl)-N′-(2-cyclopentyl-2-phenylacetyl)acrylohydrazide], for which the IC50 in assay [1] was 64.8 nM. Same read-out and setting: with `O=C(C=Cc1cccc([N+](=O)[O-])c1)NNC(=O)C(c1cc(F)c(F)cc1F)C1CCCC1` (centres unmarked) [Compound 7g, 3-(3-Nitrophenyl)-N′-(2-cyclopentyl-2-(2,4,5-trifluorophenyl)acetyl)acrylohydrazide] the figure was 54.8 nM. As to `O=C(C=Cc1ccc(Br)cc1)NNC(=O)C(c1cc(F)c(F)cc1F)C1CCCC1` (centres unmarked) [Compound 7c, 3-(4-Bromophenyl)-N′-(2-cyclopentyl-2-(2,4,5-trifluorophenyl)acetyl)acrylohydrazide], the IC50 in assay [1] (setting [2]) is 49.3 nM. Turning to `C=CCc1ccc(OC(=O)/C=C/c2ccc(O)cc2)c(-c2cc(CC=C)ccc2OC(=O)/C=C/c2ccc(O)cc2)c1` [I], the Ki at α-glucosidase (Fig. 1) was 2480 nM. Besides, the half-inhibitory concentration (IC50) at α-glucosidase (cinnamic acid magnolol derivative) was 5110 nM. For the compound `O=C(C=Cc1ccccc1)NNC(=O)C(c1cc(F)c(F)cc1F)C1CCCC1` (centres unmarked) [Compound 7a, N′-(2-cyclopentyl-2-(2,4,5-trifluorophenyl)acetyl)cinnamohydrazide], the IC50 in assay [1] turned out to be 85.2 nM. As to `O=C(/C=C/c1ccc(F)cc1)NNC(=O)C(c1ccccc1)C1CCCC1` (centres unmarked) [Compound 6f, 3-(4-Fluoro)-N′-(2-cyclopentyl-2-phenylacetyl)acrylohydrazide], the “IC50 (α-glucosidase inhibition)” value in assay [1] (setting [4]) is reported as “no inhibition effect”.

For `Fc1ccccc1/C=N/c1ccc2cn[nH]c2c1` [V], at α-glucosidase (setting [5]), the IC50 is 8510 nM. Regarding `O=C(C=Cc1cccc([N+](=O)[O-])c1)NNC(=O)C(c1ccccc1)C1CCCC1` (centres unmarked) [Compound 6g, 3-(3-Nitrophenyl)-N′-(2-cyclopentyl-2-phenylacetyl)acrylohydrazide], the IC50 in assay [1] worked out at 28.5 nM.

`O=C(C=Cc1ccccc1)NNC(=O)C(c1ccccc1)C1CCCC1` (centres unmarked) [Compound 6a, N′-(2-Cyclopentyl-2-phenylacetyl)cinnamohydrazide] returned an IC50 in assay [1] of 79.8 nM. On to `O=C(/C=C/c1ccc(O)cc1)N1CC(O)C(O)C1` (centres unmarked) [II], for which, on α-glucosidase (deacetylsarmentamide derivative), the IC50 is 546000 nM.

`O=C(C=Cc1cccc(Br)c1)NNC(=O)C(c1cc(F)c(F)cc1F)C1CCCC1` (centres unmarked) [Compound 7f, 3-(3-Bromophenyl)-N′-(2-cyclopentyl-2-(2,4,5-trifluorophenyl)acetyl)acrylohydrazide]: in assay [1], half-maximal inhibition (IC50) required 33.2 nM. For `Cc1ccc(C=CC(=O)NNC(=O)C(c2cc(F)c(F)cc2F)C2CCCC2)cc1` (centres unmarked) [Compound 7b, N′-(2-Cyclopentyl-2-(2,4,5-trifluorophenyl)acetyl)-3-(p-tolyl)acrylohydrazide], the IC50 in assay [1] (setting [2]) was determined as 14.5 nM.

Turning to `O=[N+]([O-])c1ccc2cc(-c3ncc(-c4ccccc4F)o3)oc2c1` [VI], the IC50 at α-glucosidase (setting [5]) is 13400 nM.

`COc1ccc(C=CC(=O)NNC(=O)C(c2cc(F)c(F)cc2F)C2CCCC2)cc1` (centres unmarked) [Compound 7e, N′-(2-Cyclopentyl-2-(2,4,5-trifluorophenyl)acetyl)-3-(4-methoxyphenyl)acrylohydrazide]: the “IC50 (α-glucosidase inhibition)” value in assay [1] (setting [4]) is reported as “no effect on inhibition”. In assay [1], `Cc1ccc(C=CC(=O)NNC(=O)C(c2ccccc2)C2CCCC2)cc1` (centres unmarked) [Compound 6e, N′-(2-Cyclopentyl-2-phenylacetyl)-3-(p-tolyl)acrylohydrazide] came in with an IC50 of 233 nM. Moreover, the “IC50 (α-glucosidase inhibition)” value in assay [1] (setting [4]) was “moderate inhibition”.

For `CC(C(=O)NNC(=O)c1cccc(Cl)c1)c1ccc(-c2ccccc2)c(F)c1` (centres unmarked) [IV], on α-glucosidase (setting [3]), the IC50 was 10400 nM.

Regarding `O=C(C=Cc1cccc(Br)c1)NNC(=O)C(c1ccccc1)C1CCCC1` (centres unmarked) [Compound 6c, 3-(3-Bromophenyl)-N′-(2-cyclopentyl-2-phenylacetyl)acrylohydrazide], in assay [1], it took 46.8 nM to reach half-maximal inhibition (IC50).

Values taken from publication PMC12093506, “Synthesis, characterization, and in vitro and in silico α-glucosidase inhibitory evolution of novel N′-(2-cyclopentyl-2-phenylacetyl)cinnamohydrazide derivatives” (RSC Advances, 2025).
